Laboratory results: ChEMBL document CHEMBL1156829 (Proc Natl Acad Sci U S A, 2008)

Legend:
Plasmodium falciparum [1] = assay: NOVARTIS: Inhibition of Plasmodium falciparum 3D7 (drug-susceptible) proliferation in erythrocyte-based infection assay; type: functional, organism-based; settings: Plasmodium falciparum, 3D7
[2] = NOVARTIS: Cytotoxicity against human hepatocellular carcinoma cell line (Huh7); type: toxicity, cell-based, Huh-7; settings: Huh7 cells (hepatocellular carcinoma cell line)
Plasmodium falciparum [3] = assay: NOVARTIS: Inhibition of Plasmodium falciparum W2 (drug-resistant) proliferation in erythrocyte-based infection assay; type: functional, organism-based; settings: Plasmodium falciparum, W2; read-out: EC50

| Structure (SMILES) | EC50 (Plasmodium falciparum [1]) | CC50 [2] | EC50 (Plasmodium falciparum [3]) |
| --- | --- | --- | --- |
| CCN1/C(=C/c2sc3cc(OC)c(OC)cc3[n+]2CC)C=Cc2ccccc21 | 0.136 µM | > 10 µM | 0.104 µM |
| CCOC(=O)c1[nH]c2ccccc2c1N=NN(C)C | 0.128 µM | 36.1 µM | 0.376 µM |
| COc1cc(OC)cc(C(=O)Nc2cc(C(=O)N3CCC(Cc4ccccc4)CC3)ccc2N2CC3CC(C2)c2cccc(=O)n2C3)c1 (stereo not given) | 1.87 µM | 50.3 µM | 0.548 µM |
| O=C1CSc2ccccc2N1 | > 10.7 µM | > 100 µM | 1.08 µM |
| Cn1nc(C(F)(F)F)c(-c2ccc(F)cc2)c1NC(=O)Nc1ccc(F)cc1 | 0.241 µM | 23.6 µM | 0.254 µM |
| COc1nc(NC(=N)N)nc2ccc(C)cc12 | 0.88 µM | 58 µM | 0.608 µM |
| Fc1ccccc1CCNc1ncnc2c1[nH]c1ccccc12 | 0.165 µM | 14.3 µM | 0.15 µM |
| CN1CCN(c2nc(NN=Cc3cc(Br)c(O)cc3O)nc(Nc3ccc([N+](=O)[O-])cc3)n2)CC1 | 0.321 µM | > 10 µM | 0.104 µM |
| CCOC(=O)c1c(NC(=O)c2ccc([N+](=O)[O-])cc2[N+](=O)[O-])sc2c1CCCC2 | > 12.5 µM | > 100 µM | 1.04 µM |
| Cc1c(-c2ccc(Cl)cc2)[n+]2c(n1-c1ccccc1)SCCC2 | 1.15 µM | > 100 µM | 1.04 µM |
| O=C1[C@@H]2Cc3c([nH]c4ccccc34)C(CCc3ccccc3)N2C(=O)CN1CCc1c[nH]c2ccccc12 (stereo not given in full) | 2.81 µM | > 100 µM | 1.05 µM |
| O=C1CC(c2ccc([N+](=O)[O-])cc2)C2=C(CC(c3ccc(F)cc3)CC2=O)N1 (stereo not given) | 2.02 µM | > 100 µM | 1.07 µM |
| Fc1ccc(CN2CCc3nc(N4CCCCC4)sc3C2)cc1F | 1.1 µM | > 100 µM | 1.07 µM |
| O=c1nc(C=Cc2ccc(Cl)cc2)oc2ccccc12 | 1.1 µM | > 100 µM | 1.06 µM |
| CCCCc1ccc(C(=O)Oc2ccccc2-c2nc3cc(C)ccn3c2NC(C)(C)CC(C)(C)C)cc1 | 0.616 µM | > 10 µM | 0.107 µM |
| Nc1c(C(=O)Nc2ccc(C3=NCCN3)cc2)cccc1C(=O)Nc1ccc(C2=NCCN2)cc1 | 0.259 µM | > 10 µM | 0.107 µM |
| Clc1ccc2c(N3CCC(n4cccc4)CC3)ccnc2c1 | 1.02 µM | > 100 µM | 1.05 µM |
| CCN(CC)CCN1C(=O)c2ccccc2NC1c1ccc(C)cc1 (stereo not given) | 0.858 µM | > 100 µM | 1.05 µM |
| CCC(C)(C)n1nnnc1C(c1cc2cc(C)cc(C)c2[nH]c1=O)N1CCN(c2ccc(O)cc2)CC1 (stereo not given) | 2.44 µM | > 100 µM | 1.07 µM |
| Fc1ccc(-c2c[n+](-c3ccccc3)c3n2CCS3)cc1 | 0.764 µM | > 100 µM | 1.07 µM |
| Cc1ccc(-c2nc3ncccc3o2)cc1NC(=O)COc1ccc(C(C)(C)C)cc1 | 0.42 µM | > 100 µM | 1.05 µM |
| CCOc1ccc2[nH]c(=O)c(C(c3nnnn3CCOC)N3CCCC3)cc2c1 (stereo not given) | > 12.5 µM | > 100 µM | 1.05 µM |
| COc1ccc(OC)c(-c2ccc(O)c(CNCCc3cccc(F)c3)c2)c1 | 0.675 µM | > 10 µM | 0.106 µM |
| COc1ccc(CCN2C(=O)N(CCN(C)C)C(=O)C23CCN(Cc2ccc(O)cc2)CC3)cc1 | 0.221 µM | 78.5 µM | 0.828 µM |
| COc1ccc(CN2CCC(C(=O)Nc3ccc(Oc4cccnc4)cc3)CC2)cc1 | 2.23 µM | 59.4 µM | 0.64 µM |
| CC(=O)N(C1=C(N2CCOCC2)C(=O)c2ccccc2C1=O)c1ccc(I)cc1 | 0.0737 µM | 10 µM | 0.108 µM |
| Cn1nc(C(F)(F)F)c(C(=O)Nc2ccc(Cl)cc2)c1Sc1ccc(Cl)cc1 | 0.749 µM | 34.8 µM | 0.369 µM |
| COc1ccc(/C=C2\SC(=Nc3ccccc3OC)NC2=O)cc1 | 0.249 µM | > 10 µM | 0.106 µM |

| Structure (SMILES) | EC50 (Plasmodium falciparum [1]) | CC50 [2] | EC50 (Plasmodium falciparum [3]) |
| --- | --- | --- | --- |
| CCCCCNC(=O)C1CSC(c2ccoc2)N1C(=O)c1ccccc1Cl (stereo not given) | 2.32 µM | > 100 µM | 1.06 µM |
| COc1ccccc1Nc1nc(NCc2ccccc2)c2ccccc2n1 | 0.312 µM | 19.6 µM | 0.212 µM |
| Cc1ccc(C#N)c(SCc2nnc(-c3ccc(Cl)cc3)o2)n1 | > 1.25 µM | > 10 µM | 0.108 µM |
| Sc1nnc(-c2ccncc2)n1CCc1ccccc1 | > 7.49 µM | > 100 µM | 1.08 µM |
| CCCCCN(CCCCC)C(O)c1cc2c(c3ccccc13)CCCC2 (stereo not given) | 0.0582 µM | 35.5 µM | 0.377 µM |
| COc1ccc(-[n+]2cc(-c3ccc(Cl)cc3)n3c2SCCC3)cc1 | 0.673 µM | > 100 µM | 1.06 µM |
| Cc1ccc(-c2cc(C(=O)OCC(=O)c3cccc([N+](=O)[O-])c3)c3cc(C)ccc3n2)cc1 | > 12.5 µM | > 100 µM | 1.09 µM |
| CCC(C)(C)c1ccc(OCC(O)CNCc2ccccc2)c(C(C)(C)CC)c1 (stereo not given) | 0.361 µM | 9.2 µM | 0.1 µM |
| O=C1C2C(C(=O)N1c1cccc3ccccc13)C1C=CC2C12CC2 (stereo not given) | 6.59 µM | > 100 µM | 1.09 µM |
| COc1ccc2c(c1)C(C)(CC#N)C(=O)N2C (stereo not given) | 5.64 µM | > 100 µM | 1.06 µM |
| C=CCn1c(COc2ccccc2C)nnc1SCC(=O)O | > 12.5 µM | > 100 µM | 1.05 µM |
| C=C[C@H]1CN2CC[C@H]1C[C@@H]2[C@@H](OC(=O)c1ccco1)c1ccnc2ccccc12 | 0.149 µM | > 10 µM | 0.104 µM |
| COc1ccccc1N1C(=N)SC(=Cc2ccc(OCc3ccccc3F)cc2)C1=O | 0.422 µM | > 100 µM | 1.08 µM |
| CC(=O)Nc1ccc2c(c1)C(=O)N(C(C(=O)NCC(=O)O)C1CCCCC1)[C@@H](CCC(=O)O)C(=O)N2 (stereo not given in full) | > 0.418 µM | > 10 µM | 0.109 µM |
| c1cc2cc3c(cc2c2cc4c(cc12)C[N+]1(CCCC1)C4)C[N+]1(CCCC1)C3 | 0.645 µM | > 100 µM | 1.06 µM |
| CCOC(=O)N1CCC(NC(=O)c2c(C)nn(-c3cccc(C)c3)c2-n2cccc2)CC1 | 0.28 µM | > 100 µM | 1.06 µM |
| O=C(COc1ccc(Cl)cc1)N1CCCn2cccc2C1c1ccc(Cl)cc1 (stereo not given) | 0.631 µM | > 10 µM | 0.108 µM |
| CCc1ccc(NC(=O)c2sc3nc4c(c(-c5ccco5)c3c2N)CCCC4)cc1 | 1.82 µM | > 100 µM | 1.07 µM |
| CC(=O)N(C1=C(N2CCOCC2)C(=O)c2ccccc2C1=O)c1ccc(Br)cc1 | 0.239 µM | 19.1 µM | 0.2 µM |
| O=C1CSc2nc3ccccc3n21 | 7.92 µM | > 100 µM | 1.06 µM |
| Cc1cccc(CCNc2cc(C)nc3ncnn23)c1 | 0.841 µM | > 100 µM | 1.08 µM |
| NCC(c1ccc(F)cc1)c1ccc(F)cc1 | > 0.345 µM | > 9.21 µM | 0.0998 µM |
| CC(C)c1ccc(NC(=O)/C=C/c2ccccc2Cl)cc1 | 0.186 µM | > 10 µM | 0.109 µM |
| CN1CCN(c2nc(Nc3ccc(O)cc3)nc3ccccc23)CC1 | 0.626 µM | 41.8 µM | 0.443 µM |
| CC[n+]1c(C=C2C=CN(C)C=C2)ccc2cc(C)ccc21 | 0.388 µM | > 26.8 µM | 0.286 µM |
| COc1ccc(C=CC(=O)Nc2ccncc2)cc1OC | 0.358 µM | > 100 µM | 1.07 µM |
| CC(C)(C)NCC(O)Cn1c2ccc(I)cc2c2cc(I)ccc21 (stereo not given) | 0.608 µM | 6.09 µM | 0.064 µM |
